Measured values from paper PMC5503546, “Synthesis, bioactivity, 3D-QSAR studies of novel dibenzofuran derivatives as PTP-MEG2 inhibitors” (Oncotarget, 2017).

Assays:
Human recombinant SHP2 = molecular target: T1, Human recombinant SHP2 (Homo sapiens, UniProt Q06124); experiment: PTP activity assay (pNPP), SHP2; type: biochemical; conditions: triplicate; read-out: SHP-2 IC50
T1 construct: made in house; host or cells: E. coli
T1 sequence (Q06124 1-593): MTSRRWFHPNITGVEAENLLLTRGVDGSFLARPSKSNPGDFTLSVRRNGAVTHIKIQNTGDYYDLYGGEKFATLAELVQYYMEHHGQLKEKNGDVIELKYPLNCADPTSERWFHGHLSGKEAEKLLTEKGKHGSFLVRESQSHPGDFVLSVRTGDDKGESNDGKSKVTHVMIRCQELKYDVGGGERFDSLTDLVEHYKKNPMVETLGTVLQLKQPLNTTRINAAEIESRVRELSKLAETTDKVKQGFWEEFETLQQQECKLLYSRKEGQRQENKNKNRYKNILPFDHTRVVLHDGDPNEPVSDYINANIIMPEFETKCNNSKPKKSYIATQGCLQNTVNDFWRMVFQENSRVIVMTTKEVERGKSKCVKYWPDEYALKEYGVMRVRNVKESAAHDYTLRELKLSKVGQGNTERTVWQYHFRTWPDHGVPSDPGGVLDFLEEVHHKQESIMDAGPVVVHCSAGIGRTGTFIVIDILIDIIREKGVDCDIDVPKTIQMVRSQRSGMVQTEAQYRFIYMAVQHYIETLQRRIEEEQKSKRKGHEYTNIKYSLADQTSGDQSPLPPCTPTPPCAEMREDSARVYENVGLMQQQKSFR
From the text: (§1) Human recombinant PTP-MEG2, SHP2 and CDC25 were expressed in E. coli and purified by Ni-NTA affinity chromatography in our laboratory. The basic chemical reaction catalyzed by a phosphatase converts a phosphosubstrate into a dephosphorylated product and free phosphate which could be measured as a surrogate for phosphatase activity. pNPP(para-nitrophenyl phosphate) was used as phosphatase substrate which can be hydrolyzed by phosphatase to give para-nitrophenol. Subsequently, para-nitrophenol converts into para-nitrophenolate (pNP) with addition of sodium hydroxide stop solution. pNP is an intense yellow compound and could be measured at 405 nm using a spectrophotometer. To begin with, purified recombinant PTP-MEG2, SHP2 and CDC25 (0.05 μg) in 50 μL buffer with 50 mM citrate (pH 6.0), 0.1 M NaCl, 1 mM EDTA, and 1 mM dithiothreitol (DTT) and test compounds were added to each well of a 96-well plate. Blank was prepared by omitting enzyme and substituting an equivalent volume of buffer. After preincubation for 15 min at room temperature, 50 μL of reaction buffer with 2 mM pNPP was added and incubated at 37°C for 30 min. Then, the reaction was stopped by adding 10 μL 0.2 M sodium hydroxide and chilled on ice quickly. In addition, the amount of pNP was measured by detecting the absorption at 405 nm against blank. Finally, IC50 values were determined by analyzing the data using ORIGINPRO 8 software.

[1] = molecular target: T2, Human recombinant PTP-MEG2 (Homo sapiens, UniProt P43378); experiment: PTP activity assay (pNPP), PTP-MEG2; type: biochemical; conditions: triplicate, mean ± S.E.M.
T2 construct: made in house; host or cells: E. coli
T2 sequence (P43378 1-593): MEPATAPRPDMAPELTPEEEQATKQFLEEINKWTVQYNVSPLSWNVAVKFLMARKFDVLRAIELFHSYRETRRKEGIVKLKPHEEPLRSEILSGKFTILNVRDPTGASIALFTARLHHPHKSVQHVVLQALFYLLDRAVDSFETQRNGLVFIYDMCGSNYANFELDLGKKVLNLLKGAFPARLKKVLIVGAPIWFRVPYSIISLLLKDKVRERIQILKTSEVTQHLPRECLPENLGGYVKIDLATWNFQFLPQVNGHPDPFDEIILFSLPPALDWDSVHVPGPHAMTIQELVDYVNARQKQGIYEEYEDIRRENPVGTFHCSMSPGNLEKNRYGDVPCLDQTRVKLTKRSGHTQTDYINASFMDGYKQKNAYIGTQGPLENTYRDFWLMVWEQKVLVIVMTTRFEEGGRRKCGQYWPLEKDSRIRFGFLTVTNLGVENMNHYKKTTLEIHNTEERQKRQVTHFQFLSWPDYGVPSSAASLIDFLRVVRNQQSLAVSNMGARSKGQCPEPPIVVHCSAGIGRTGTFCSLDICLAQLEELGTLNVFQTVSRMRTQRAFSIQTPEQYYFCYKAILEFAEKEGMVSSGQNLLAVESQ
From the text: as §1

Human recombinant CDC25 = experiment: PTP activity assay (pNPP), CDC25; type: biochemical; conditions: triplicate
From the text: as §1

diet-induced obese mice = conditions: ref [20]; cited from earlier work

SMILES | IC50 (Human recombinant SHP2) [µM] | IC50 [1] [µM] | IC50 (Human recombinant CDC25) [µM] | effect on insulin signaling, insulin sensitivity and glucose homeostasis (diet-induced obese mice)
CCOC(=O)c1cc(OC(C)=O)c2c(c1)oc1cc(F)c(C(C)C)cc12 [Compound 8, ethyl 1-acetoxy-7-fluoro-8-isopropyldibenzo[b, d]furan-3-carboxylate] | > 50 | 3.7 ± 0.22 | > 50 | –
COC(=O)c1cc(O)c2c(c1)oc1cc(F)c(C(C)C)cc12 [Compound 9a, methyl 7-fluoro-1-hydroxy-8-isopropyldibenzo[b, d]furan-3-carboxylate] | > 50 | 5 ± 0.4 | > 50 | –
CCOC(=O)c1cc(OCC2CC2)c2c(c1)oc1cc(F)c(C(C)C)cc12 [Compound 10a, ethyl 1-(cyclopropylmethoxy)-7-fluoro-8-isopropyldibenzo[b, d]furan-3-carboxylate] | > 50 | 0.32 ± 0.02 | > 50 | –
CCCCCCOc1cc(C(=O)OCC)cc2oc3cc(F)c(C(C)C)cc3c12 [Compound 10b, ethyl 7-fluoro-1-(hexyloxy)-8-isopropyldibenzo[b, d]furan-3-carboxylate] | > 50 | 1.22 ± 0.11 | > 50 | –
CCOC(=O)c1cc(OCC2CCCCC2)c2c(c1)oc1cc(F)c(C(C)C)cc12 [Compound 10c, ethyl 1-(cyclohexylmethoxy)-7-fluoro-8-isopropyldibenzo[b, d]furan-3-carboxylate] | > 50 | 1.19 ± 0.08 | > 50 | –
CCOC(=O)c1cc(OCc2ccc(OC)cc2)c2c(c1)oc1cc(F)c(C(C)C)cc12 [Compound 10d, ethyl7-fluoro-8-isopropyl-1-((4-methoxybenzyl)oxy)dibenzo[b, d]furan-3-carboxylate] | > 50 | 3.39 ± 0.34 | > 50 | –
CCCCCCOc1cc(C(=O)OCC2CCCCC2)cc2oc3cc(F)c(C(C)C)cc3c12 [Compound 11c, cyclohexylmethyl7-fluoro-1-(hexyloxy)-8-isopropyldibenzo[b, d]furan-3-carboxylate] | > 50 | 3.16 ± 0.32 | > 50 | –
COc1ccc(COc2cc(C(=O)OCC3CCCCC3)cc3oc4cc(F)c(C(C)C)cc4c23)cc1 [Compound 11d, cyclohexylmethyl7-fluoro-8-isopropyl-1-((4-methoxybenzyl)oxy)dibenzo[b, d]furan-3-carboxylate] | > 50 | 0.83 ± 0.04 | > 50 | –
CCOC(=O)/C(=C/C#Cc1cc(C(C)C)c(F)cc1OC)CC(=O)O [compound7] | – | – | – | augment insulin signaling and enhance the insulin sensitivity and glucose homeostasis

The next lines start with results.

IC50 (Human recombinant SHP2) [µM] | IC50 [1] [µM] | IC50 (Human recombinant CDC25) [µM] | SMILES | effect on insulin signaling, insulin sensitivity and glucose homeostasis (diet-induced obese mice)
> 50 | 2.41 ± 0.17 | > 50 | CCCCCCOc1cc(C(=O)OCC2CC2)cc2oc3cc(F)c(C(C)C)cc3c12 [Compound 11a, cyclopropylmethyl7-fluoro-1-(hexyloxy)-8-isopropyldibenzo[b, d]furan-3-carboxylate] | –
> 50 | 1.06 ± 0.1 | > 50 | COc1ccc(COc2cc(C(=O)OCC3CC3)cc3oc4cc(F)c(C(C)C)cc4c23)cc1 [Compound 11b, cyclopropylmethyl7-fluoro-8-isopropyl-1-((4-methoxybenzyl)oxy)dibenzo[b, d]furan-3-carboxylate] | –
> 50 | 5.35 ± 0.43 | > 50 | CC(C)c1cc2c(cc1F)oc1cc(C(=O)O)cc(OCC3CC3)c12 [Compound 11e, 1-(cyclopropylmethoxy)-7-fluoro-8-isopropyldibenzo[b, d]furan-3-carboxylic acid] | –
